These are literature values, as cited in patent US12377034B2, “Method for dyeing keratinous material, comprising the use of an organosilicon compound, an effect pigment and a film-forming polymer II” (Henkel AG & Co. KGaA, priority 2019, dated 2025).

Each structure is given as a SMILES string.

The conditions of the data set: for solubility in water: 25° C.

With `CCN(Cc1cccc(S(=O)(=O)O)c1)c1ccc(C(=C2C=CC(=[N+](CC)Cc3cccc(S(=O)(=O)O)c3)C=C2)c2ccccc2S(=O)(=O)[O-])cc1` [Acid Blue 9], the solubility in water entry is reported as “more than 20 % by weight”.
Take `O=S(=O)(O)c1ccc(N=Nc2c(O)ccc3ccccc23)cc1` [Acid Orange 7, 4-[(2-hydroxy-1-naphthyl)azo]benzene sulphonate]: the solubility in water result is given as “more than 7 g/L”.
On to `O=[N+]([O-])c1cc([N+](=O)[O-])c2ccc(S(=O)(=O)O)cc2c1O` [Acid Yellow 9, 8-hydroxy-5,7-dinitro-2-naphthalenesulfonic acid], for which the solubility in water entry is listed as “above 40 g/L”.
`O=C(O)C1=NN(c2ccc(S(=O)(=O)O)cc2)C(=O)C1N=Nc1ccc(S(=O)(=O)O)cc1` (stereo not shown) [Acid Yellow 23, 4,5-dihydro-5-oxo-1-(4-sulfophenyl)-4-((4-sulfophenyl)azo)-1H-pyrazole-3-carboxylic acid]: where the note is “at 25° C.”, the “solubility in water (in words)” value was “highly soluble”.
